According to PubChem BioAssay (NCI):
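Assay format: 96-well plates, 48-hour exposure. GI50: concentration for 50% inhibition of growth. TGI is the concentration that stops growth completely.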

How the values were obtained:
Experiment in all cases: DTP human tumour cell line panel, 48 h
A549 NSCLC = system: A549 NSCLC
HCC-2998 colon = system: HCC-2998 colon
NCI-H460 lung = system: NCI-H460 lung
NCI-H522 lung = system: NCI-H522 lung
OVCAR-8 ovarian = system: OVCAR-8 ovarian
SF-295 CNS = system: SF-295 CNS
SF-539 CNS = system: SF-539 CNS
SK-OV-3 ovarian = system: SK-OV-3 ovarian
UACC-62 melanoma = system: UACC-62 melanoma
DU-145 prostate = system: DU-145 prostate

SMILES | TGI (A549 NSCLC) [µM] | TGI (HCC-2998 colon) [µM] | TGI (NCI-H460 lung) [µM] | TGI (NCI-H522 lung) [µM] | TGI (OVCAR-8 ovarian) [µM] | TGI (SF-295 CNS) [µM] | TGI (SF-539 CNS) [µM] | TGI (SK-OV-3 ovarian) [µM] | TGI (UACC-62 melanoma) [µM] | GI50 (A549 NSCLC) [µM] | GI50 (DU-145 prostate) [µM] | TGI (DU-145 prostate) [µM] | GI50 (HCC-2998 colon) [µM] | GI50 (NCI-H460 lung) [µM] | GI50 (OVCAR-8 ovarian) [µM] | GI50 (SF-295 CNS) [µM] | GI50 (SF-539 CNS) [µM] | GI50 (SK-OV-3 ovarian) [µM] | GI50 (UACC-62 melanoma) [µM]
Clc1cc(Cc2cc(Cl)c(Cl)c3c2OCOC3)c2c(c1Cl)COCO2 | > 100 | > 100 | > 100 | > 100 | > 100 | 78.8 | 52.3 | 64.4 | > 100 | – | – | – | – | – | – | – | – | – | –
N#CC(C(=O)CCC(=O)C(C#N)c1ccccc1)c1ccccc1 (centres undefined) | > 100 | > 100 | > 100 | > 100 | > 100 | > 100 | > 100 | > 100 | > 100 | – | – | – | – | – | – | – | – | – | –
N#Cc1nc2c(S(=O)(=O)c3ccccc3)c(N)n(Cc3cccnc3)c2nc1C#N | > 100 | > 100 | > 100 | – | > 100 | 50.7 | 23.7 | 67.5 | > 100 | > 100 | 24.7 | > 100 | > 100 | > 100 | 10.9 | 20.5 | 3.25 | 18.8 | 20.7
CCOc1ccccc1NC(=O)CC1SC(=Nc2ccc([N+](=O)[O-])cc2)NC1=O (centres undefined) | 38.9 | 36.7 | 51.1 | – | 51.4 | 34.9 | – | – | 39.9 | – | – | – | – | – | – | – | – | – | –
COC(=O)/C([Se]c1c(C)cc(C)cc1C)=C(\[Se]c1c(C)cc(C)cc1C)C(=O)OC | > 100 | > 100 | > 100 | > 100 | > 100 | > 100 | – | > 100 | > 100 | – | – | – | – | – | – | – | – | – | –
CCn1c(CN2CCN(Cc3ccccc3)CC2)nc2cc(NC(=O)c3cccs3)ccc21 | – | 35.6 | 42.5 | – | 55.9 | 34.7 | 28.4 | 71.6 | 31.5 | – | 32.1 | > 100 | 17.3 | 18.7 | 20.1 | 16.7 | 14.6 | 25.7 | 14.3
O=C1NC(=O)C2C(=O)NC(=O)C1C2(c1ccccc1)c1cc[nH]c1 (centres undefined) | > 100 | > 100 | > 100 | > 100 | > 100 | > 100 | > 100 | > 100 | > 100 | – | – | – | – | – | – | – | – | – | –
N#CC(C(=O)/C(=N/N)C(C#N)c1ccccc1)c1ccccc1 (centres undefined) | > 100 | > 100 | > 100 | > 100 | > 100 | > 100 | > 100 | > 100 | > 100 | – | – | – | – | – | – | – | – | – | –
N/C(=C\c1ccc(OCc2ccccc2)c(OCc2ccccc2)c1[N+](=O)[O-])C(=O)O | > 100 | > 100 | – | > 100 | > 100 | > 100 | > 100 | > 100 | > 100 | – | – | – | – | – | – | – | – | – | –
Oc1cc(O)c2c(-c3c(O)c(-c4ccc(O)c(O)c4)[o+]c4cc(O)cc(O)c34)c(O)c(-c3ccc(O)c(O)c3)[o+]c2c1 | > 100 | > 100 | 90.6 | – | > 100 | > 100 | 50.3 | > 100 | 46.7 | – | – | – | – | – | – | – | – | – | –
Cc1cc2nc(CCC(=O)O)c(=O)[nH]c2cc1C | > 100 | > 100 | > 100 | > 100 | > 100 | > 100 | > 100 | > 100 | > 100 | – | – | – | – | – | – | – | – | – | –
